Test results from patent US20100196321A1, “COMPOUNDS” (GLAXOSMITHKLINE LLC, priority 2009, published 2010).

How the values were obtained:
[1] = tested on: sub-genomic HCV NS3-NS5B replicon of genotype 1a in Huh-7 cells; assay: Replicon Luciferase Cell Based Assay, genotype 1a; parameters: species or system HCV genotype 1a; settings: Hepatitis C virus, Huh-7, 48 hours
Protocol: (§1) A 10 mM stock solution in DMSO of each test compound was further diluted in DMSO in the first row of a 384-well, V-bottom microplate, to give 100 times the top concentration of the required dilution series. Dilutions of compound were prepared in 1:3 serial dilutions from the first row onwards robotically. A robot was also used to transfer 0.5 μL volumes from each dilution well into wells of white 384-well assay plates (Nunc #164610). Control wells received 0.5 μL of DMSO alone. Plates were made in duplicate for measuring HCV replication and cytotoxicity in the replicon cell lines.
(§2) Suspensions were prepared from cultures of Huh-7 cells stably transfected with sub-genomic HCV NS3—NS5B replicons of either genotype 1b (the ET subline described by Pietschmann, T., Lohmann, V., Kaul, A., Krieger, N., Rinck, G., Rutter, G., Strand, D. & Bartenschlager, R., Journal of Virology, 2002, 76, 4008-4021) or genotype 1a linked to a firefly luciferase reporter gene. Monolayers nearing confluency were stripped from growth flasks with versene-trypsin solution and the cells re-suspended in assay medium comprising DMEM (Invitrogen #11965-092) supplemented with 5% v/v foetal calf serum, 1% v/v non-essential amino acids solution, 100 units/ml penicillin, 100 μg/ml streptomycin and 2 mM GlutaMAX-1. 50 μL of suspension containing 5,000 cells of either genotype 1b or genotype 1a luciferase replicon were added to all wells, except medium controls, of the assay plate with a Multidrop Combi (Thermo Scientific Corporation) and the plate incubated for 48 hours at 37° C. in a 5% CO2 atmosphere. A solution of Steady-Glo cytolytic buffer/luciferase substrate (Promega #E2550) was prepared according to the manufacturer's instructions, and 20 μL were added to each well with a Multidrop Combi. To measure cytotoxicity, a solution of CellTiter-Glo Luminescent Cell Viability Assay reagent (Promega #G7573) was prepared according to the manufacturer's instructions, and 20 ul were added to each well with a Multidrop Combi. The plates were then read for luminescence on an Envision Multilabel Reader (Perkin Elmer)
(§3) Potency: The luminescence values from all compound-free wells containing cells were averaged to obtain a positive control value. The mean luminescence value from the compound-free wells that had received no cells was used to provide the negative (background) control value. After the subtraction of the mean background from all values, the readings from wells at each compound concentration were expressed as a percentage of the positive control signal. The quantifiable and specific reduction of luciferase signal in the presence of a drug is a direct measure of replicon inhibition. The BioAssay application and XC50 module were used to plot the curve of percentage inhibition against compound concentration and derive the 50% inhibitory concentration (IC50) for the compound.

[2] = tested on: sub-genomic HCV NS3-NS5B replicon of genotype 1b (ET subline) in Huh-7 cells; assay: Replicon Luciferase Cell Based Assay, genotype 1b; parameters: species or system HCV genotype 1b; settings: Hepatitis C virus, Huh-7, 48 h, read-out: Genotype 1b (IC50 μM)
Protocol: as §1, §2, §3

SMILES	IC50 [1] [µM]	IC50 [2] [µM]
CCN(CC)C(=O)N[C@H]1CCCCC/C=C\[C@@H]2C[C@@]2(C(=O)NS(=O)(=O)C2CC2)NC(=O)[C@@H]2C[C@@H](Oc3cc(-c4nc(C5CC5)cs4)nc4c(Cl)c(OC)ccc34)CN2C1=O [Example 4, (2R,6S,13aS,14aR,16aS,Z)-2-(8-chloro-2-(4-cyclopropylthiazol-2-yl)-7-methoxyquinolin-4-yloxy)-N-(cyclopropylsulfonyl)-6-(3,3-diethylureido)-5,16-dioxo-1,2,3,5,6,7,8,9,10,11,13a,14,14a,15,16,16a-hexadecahydrocyclopropa[e]pyrrolo[1,2-a][1,4]diazacyclopentadecine-14a-carboxamide]	< 0.01	< 0.01
COc1ccc2c(O[C@@H]3C[C@H]4C(=O)N[C@]5(C(=O)NS(=O)(=O)C6CC6)C[C@H]5/C=C\CCCCC[C@H](NC(=O)N5CCC(C)(C)C5)C(=O)N4C3)cc(-c3nc(C(C)C)cs3)nc2c1C [Example 36, (2R,6S,13aS,14aR,16aS,Z)-N-(cyclopropylsulfonyl)-6-(3,3-dimethylpyrrolidine-1-carboxamido)-2-(2-(4-isopropylthiazol-2-yl)-7-methoxy-8-methylquinolin-4-yloxy)-5,16-dioxo-1,2,3,5,6,7,8,9,10,11,13a,14,14a,15,16,16a-hexadecahydrocyclopropa[e]pyrrolo[1,2-a][1,4]diazacyclopentadecine-14a-carboxamide]	< 0.01	< 0.01
COc1ccc2c(O[C@@H]3C[C@H]4C(=O)N[C@]5(C(=O)NS(=O)(=O)C6CC6)C[C@H]5/C=C\CCCCC[C@H](NC(=O)N5CCOCC5)C(=O)N4C3)cc(-c3nc(C(C)C)cs3)nc2c1C [Example 14]	< 0.01	< 0.01
CCN(C(=O)N[C@H]1CCCCC/C=C\[C@@H]2C[C@@]2(C(=O)NS(=O)(=O)C2CC2)NC(=O)[C@@H]2C[C@@H](Oc3cc(-c4nc(C5CC5)cs4)nc4c(C)c(OC)ccc34)CN2C1=O)C(C)C [Example 5, (2R,6S,13aS,14aR,16aS)-N-(cyclopropylsulfonyl)-2-{[2-(4-cyclopropyl-1,3-thiazol-2-yl)-8-methyl-7-(methyloxy)-4-quinolinyl]oxy}-6-({[ethyl(1-methylethyl)amino]carbonyl}amino)-5,16-dioxo-1,2,3,6,7,8,9,10,11,13a,14,15,16,16a-tetradecahydrocyclopropa[e]pyrrolo[1,2-a][1,4]diazacyclopentadecine-14a(5H)-carboxamide]	< 0.01	< 0.01
COCCN(C)C(=O)N[C@H]1CCCCC/C=C\[C@@H]2C[C@@]2(C(=O)NS(=O)(=O)C2CC2)NC(=O)[C@@H]2C[C@@H](Oc3cc(-c4nc(C5CC5)cs4)nc4c(Cl)c(OC)ccc34)CN2C1=O [Example 28, (2R,6S,13aS,14aR,16aS)-2-{[8-chloro-2-(4-cyclopropyl-1,3-thiazol-2-yl)-7-(methyloxy)-4-quinolinyl]oxy}-N-(cyclopropylsulfonyl)-6-[({methyl[2-(methyloxy)ethyl]amino}carbonyl)amino]-5,16-dioxo-1,2,3,6,7,8,9,10,11,13a,14,15,16,16a-tetradecahydrocyclopropa[e]pyrrolo[1,2-a][1,4]diazacyclopentadecine-14a(5H)-carboxamide]	< 0.01	< 0.01
COc1ccc2c(O[C@@H]3C[C@H]4C(=O)N[C@]5(C(=O)NS(=O)(=O)C6CC6)C[C@H]5/C=C\CCCCC[C@H](NC(=O)N(C)C(C)C)C(=O)N4C3)cc(-c3nc(C4CC4)cs3)nc2c1C [Example 7, (2R,6S,13aS,14aR,16aS)-N-(cyclopropylsulfonyl)-2-{[2-(4-cyclopropyl-1,3-thiazol-2-yl)-8-methyl-7-(methyloxy)-4-quinolinyl]oxy}-6-({[methyl(1-methylethyl)amino]carbonyl}amino)-5,16-dioxo-1,2,3,6,7,8,9,10,11,13a,14,15,16,16a-tetradecahydrocyclopropa[e]pyrrolo[1,2-a][1,4]diazacyclopentadecine-14a(5H)-carboxamide]	< 0.01	< 0.01
COc1ccc2c(O[C@@H]3C[C@H]4C(=O)N[C@]5(C(=O)NS(=O)(=O)C6CC6)C[C@H]5/C=C\CCCCC[C@H](NC(=O)N5CCN(C6CCCC6)CC5)C(=O)N4C3)cc(-c3nc(C(C)C)cs3)nc2c1C [Example 13, (2R,6S,13aS,14aR,16aS)-6-{[(4-cyclopentyl-1-piperazinyl)carbonyl]amino}-N-(cyclopropylsulfonyl)-2-{[8-methyl-2-[4-(1-methylethyl)-1,3-thiazol-2-yl]-7-(methyloxy)-4-quinolinyl]oxy}-5,16-dioxo-1,2,3,6,7,8,9,10,11,13a,14,15,16,16a-tetradecahydrocyclopropa[e]pyrrolo[1,2-a][1,4]diazacyclopentadecine-14a(5H)-carboxamide]	< 0.01	< 0.01
COc1ccc2c(O[C@@H]3C[C@H]4C(=O)N[C@]5(C(=O)NS(=O)(=O)C6CC6)C[C@H]5/C=C\CCCCC[C@H](NC(=O)N5CCCC5)C(=O)N4C3)cc(-c3nc(C4CC4)cs3)nc2c1C [Example 30, (2R,6S,13a-5,1-aR,16aS,Z)-N-(cyclopropylsulfonyl)-2-(2-(4-cyclopropylthiazol-2-yl)-7-methoxy-8-methylquinolin-4-yloxy)-5,16-dioxo-6-(pyrrolidine-1-carboxamido)-1,2,3,5,6,7,8,9,10,11,13a,14,14a,15,16,16a-hexadecahydrocyclopropa[e]pyrrolo[1,2-a][1,4]diazacyclopentadecine-14a-carboxamide]	< 0.01	< 0.01
COc1ccc2c(O[C@@H]3C[C@H]4C(=O)N[C@]5(C(=O)NS(=O)(=O)C6CC6)C[C@H]5/C=C\CCCCC[C@H](NC(=O)N5CCC(N6CCCC6)CC5)C(=O)N4C3)cc(-c3nc(C(C)C)cs3)nc2c1C [Example 21, (2R,6S,13aS,14aR,16aS)-N-(cyclopropylsulfonyl)-2-{[8-methyl-2-[4-(1-methylethyl)-1,3-thiazol-2-yl]-7-(methyloxy)-4-quinolinyl]oxy}-5,16-dioxo-6-({[4-(1-pyrrolidinyl)-1-piperidinyl]carbonyl}amino)-1,2,3,6,7,8,9,10,11,13a,14,15,16,16a-tetradecahydrocyclopropa[e]pyrrolo[1,2-a][1,4]diazacyclopentadecine-14a(5H)-carboxamide]	< 0.01	< 0.01
COc1ccc2c(O[C@@H]3C[C@H]4C(=O)N[C@]5(C(=O)NS(=O)(=O)C6CC6)C[C@H]5/C=C\CCCCC[C@H](NC(=O)N5CCC(O)CC5)C(=O)N4C3)cc(-c3nc(C(C)C)cs3)nc2c1C [Example 22, (2R,6S,13aS,14aR,16aS)-N-(cyclopropylsulfonyl)-6-{[(4-hydroxy-1-piperidinyl)carbonyl]amino}-2-{[8-methyl-2-[4-(1-methylethyl)-1,3-thiazol-2-yl]-7-(methyloxy)-4-quinolinyl]oxy}-5,16-dioxo-1,2,3,6,7,8,9,10,11,13a,14,15,16 ,16a-tetradecahydrocyclopropa[e]pyrrolo[1,2-a][1,4]diazacyclopentadecine-14a(5H)-carboxamide]	< 0.01	< 0.01
